Laboratory results from patent US6369081B1, “Muscarinic receptor agonists” (The University of Toledo, priority 1999, dated 2002).

Columns and labels:
[1] = target: T1, M1 muscarinic receptors expressed in A9 L cells (Homo sapiens, UniProt P11229); conditions: mean ± s.e.m.; for PI metabolism (at 100 μM): percentage stimulation above basal levels at 100 μM relative to the carbachol response (100%), two to five assays; for PI metabolism Smax: maximal stimulation from full dose-response curves; for EC50: read-out: PI metabolism EC50, full dose-response curves
T1 sequence (P11229 1-460): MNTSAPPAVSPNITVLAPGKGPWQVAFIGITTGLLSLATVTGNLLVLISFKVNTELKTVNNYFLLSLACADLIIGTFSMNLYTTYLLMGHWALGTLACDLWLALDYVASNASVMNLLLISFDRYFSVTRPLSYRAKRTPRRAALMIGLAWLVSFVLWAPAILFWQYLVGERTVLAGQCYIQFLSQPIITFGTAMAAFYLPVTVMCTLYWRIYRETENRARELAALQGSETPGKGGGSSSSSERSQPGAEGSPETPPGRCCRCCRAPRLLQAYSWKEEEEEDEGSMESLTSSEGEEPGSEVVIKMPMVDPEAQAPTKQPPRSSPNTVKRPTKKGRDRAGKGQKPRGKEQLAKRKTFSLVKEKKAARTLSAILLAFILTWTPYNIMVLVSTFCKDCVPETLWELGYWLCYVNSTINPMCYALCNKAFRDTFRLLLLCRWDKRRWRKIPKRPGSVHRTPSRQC
Text: (§1) Full dose-response curves were obtained for a few compounds.

M1 muscarinic receptors = target: T2, M1 muscarinic receptors (Homo sapiens, UniProt P11229); conditions: read-out: M1 Receptors Ki; M1 receptors expressed in A9 L cells
T2 sequence (P11229 1-460): T1 sequence (P11229 1-460)
Text: as §1

M2 receptors = target: T3, M2 receptors (Homo sapiens, UniProt P08172); assay: Receptor binding at M2 receptors expressed in A9 L cells (high and low affinity sites); conditions: share of high affinity sites
T3 construct: expressed in transfected cells; host or cells: A9 L cells
T3 sequence (P08172 1-466): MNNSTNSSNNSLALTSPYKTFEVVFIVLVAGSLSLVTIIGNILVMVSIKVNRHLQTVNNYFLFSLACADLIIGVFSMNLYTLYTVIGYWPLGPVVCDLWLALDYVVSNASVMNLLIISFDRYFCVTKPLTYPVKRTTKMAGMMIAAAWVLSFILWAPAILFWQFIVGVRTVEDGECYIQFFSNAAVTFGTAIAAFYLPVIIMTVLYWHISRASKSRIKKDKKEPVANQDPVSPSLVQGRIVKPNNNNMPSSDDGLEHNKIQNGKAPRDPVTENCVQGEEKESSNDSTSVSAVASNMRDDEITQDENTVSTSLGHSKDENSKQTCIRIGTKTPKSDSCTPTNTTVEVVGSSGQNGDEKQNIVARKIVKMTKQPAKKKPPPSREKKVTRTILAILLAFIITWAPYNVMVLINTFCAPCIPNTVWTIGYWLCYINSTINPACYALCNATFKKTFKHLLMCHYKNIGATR

| Compound | PI metabolism (at 100 μM) [1] [%] | Ki (M1 muscarinic receptors) [nM] | PI metabolism Smax [1] [%] | EC50 [1] [nM] | M2 Receptors % High affinity (M2 receptors) [%] |
| --- | --- | --- | --- | --- | --- |
| CN1CCC=C(c2nsnc2OCCCCCCCCCCOc2nsnc2C2=CCCN(C)C2)C1 [(CH2)10] | 76 ± 11 | – | – | – | – |
| CN1CCC=C(c2nsnc2OCCCCCCOc2nsnc2C2=CCCN(C)C2)C1 [(CH2)6] | 18 ± 0.06 | 0.61 ± 0.18 | – | – | – |
| CN1CCC=C(c2nsnc2OCCCCCCCCOc2nsnc2C2=CCCN(C)C2)C1 [(CH2)8] | 8.2 ± 1.4 | 0.19 ± 0.04 | – | – | – |
| CN1CCC=C(c2nsnc2OCCCCCCCCCOc2nsnc2C2=CCCN(C)C2)C1 [(CH2)9] | 27 ± 6.2 | – | 140 ± 34 | 720 ± 370 | – |
| CN1CCC=C(c2nsnc2OCCOCCOCCOCCOc2nsnc2C2=CCCN(C)C2)C1 [(CH2)4O3, 2, 2′-bis-{[3-(1-methyl-1,2,5,6-tetrahydropyrid-3-yl)-1,2,5-thiadiazol-4-yloxy]ethyloxy}-diethylether] | – | 0.12 ± 0.057 | 250 ± 36 | 8.5 ± 1.2 | – |
| CN1CCC=C(c2nsnc2OCCCCCCCCCCCCOc2nsnc2C2=CCCN(C)C2)C1 [(CH2)12, 1, 12-bis-[3-(1-methyl-1,2,5,6-tetrahydropyrid-3-yl)-1,2,5-thiadiazol-4-yloxy]-dodecane] | 84 ± 9.9 | – | 190 ± 61 | 340 ± 190 | – |
| CCCCCCOc1nsnc1C1=CCCN(C)C1 [Xanomeline] | – | – | – | – | 26 ± 8.5 |
